Experimental findings from patent US4769364A, “Pyrimidin-5-yl phosphoric acid ester and thionophosphoric acid ester pesticides” (priority 1985, dated 1988) are described below.

In data set [1] the test system is Phorbia antiqua maggots. Briefly: Critical concentration test/soil insects: Phorbia antiqua maggots (in the soil). The note with it: 2.5 ppm active compound in soil; 2 to 7 days; 100% = all test insects killed. It is filed as in vivo. Here is the method: (§1) Critical concentration test/soil insects
Test insect: Phorbia antiqua maggots (in the soil)
(§2) Solvent: 3 parts by weight of acetone
Emulsifier: 1 part by weight alkylaryl polyglycol ether.
(§3) To produce a suitable preparation of active compound, 1 part by weight of active compound is mixed with the stated amount of solvent, the stated amount of emulsifier is added and the concentrate is diluted with water to the desired concentration.
The preparation of active compound is intimately mixed with soil. The concentration of the active compound in the preparation is of practically no importance, only the amount by weight of active compound per unit volume of soil, which is given in ppm (=mg/liter) being decisive. The soil is filled into pots and the pots are left to stand at room temperature.
After 24 hours, the test insects are introduced into the treated soil, and after a further 2 to 7 days the degree of effectiveness of the active compound is determined in % by counting the dead and live test insects. The degree of effeciveness is 100% if all the test insects have been killed and is 0% if just as many test insects are still alive as in the case of the untreated control.

Data set [2] concerns Meloidogyne incognita. The experiment in a line: Critical concentration test/nematodes: Meloidogyne incognita. The data set is classed as in vivo. The note with it: 20 ppm active compound in soil; lettuce, four weeks, 27° C.; 100% = infestation completely avoided. The protocol: Critical concentraion test/nematodes
Test nematode: Meloidogyne incognita
as §2
(§4) Emulsifier: 1 part by weight of alkylaryl polyglycol ether.
as §3
The preparation of active compound is intimately mixed with soil which is heavily infested with the test nematodes. The concentration of the active compound in the preparation is of practically no importance, only the amount of active compound per unit volume of soil, which is given in ppm, being decisive. The treated soil is filled into pots, lettuce is sown in and the pots are kept at a greenhouse temperature of 27° C.
After four weeks, the lettuce roots are examined for infestation with nematodes (root galls), and the degree of effectiveness of the active compound is determined in %. The degree of effectiveness is 100% if infestation is completely avoided and is 0% if the infestation is just as high as in the case of the control plants in untreated soil which has been infested in the same manner.

Data set [3] in a line: Toxicity to warm-blooded animals, LD50 on rats (oral). The note with it: rat, in vivo, oral (stomach tube), dissolved in polyethylene glycol LUTROL. Here is the method:
Toxicity to warm-blooded animals, LD50 values on rats (oral)
The values were determined in the customary manner. The active compounds were dissolved in polyethylene glycol LUTROL (trademark of BASF AG, Ludwigshafen, Federal Republic of Germany) and the solution was administered to rats with a stomach tube.

The test system of data set [4] is Diabrotica balteata larvae. Briefly: Critical concentration test/soil insects: Diabrotica balteata larvae in the soil. It is filed as in vivo. Conditions: 168 h, 2.5 ppm active compound in soil, after a further 7 days, 100% = all test insects killed, read-out: degree of effectiveness. Here is the method: as §1
Test insect: Diabrotica balteata larvae in the soil
as §2, §4, §3
The preparation of active compound is intimately mixed with soil. The concentration of the active compound in the preparation is of practically no importance, only the amount by weight of active compound per unit volume of soil, which is given in ppm (=mg/liter) being decisive. The soil is filled into 0.5 liter pots and these are left to stand at 20° C.
Immediately after setting up the test, 6 pregerminated grains of corn are placed in each pot. After 2 days, the corresponding test insects are introduced into the treated soil. After a further 7 days the degree of effectiveness of the active compound is determined in % by counting the dead and live test insects. The degree of effectiveness is 100% if all the test insects have been killed and is 0% if just as many test insects are still alive as in the case of the untreated control.

Data set [5] concerns Lucilia cuprina OP res. larvae. Briefly: Test with Lucilia cuprina OP res. larvae. The note with it: 10 ppm active compound, 24 hours, read-out: destruction. It is filed as in vivo. The protocol:
Test with Lucilia cuprina OP res. larvae
35 parts by weight of ethylene glycol monoethyl ether
35 parts by weight of nonylphenol polyglycol ether.
To produce a suitable preparation of active compound, three parts by weight of active compound are mixed with seven parts by weight of the abovementioned solvent mixture and the concentrate thus obtained is diluted with water to the particular desired concentration.
About 20 Lucilia cuprina res. larvae are introduced into a test tube which contains approx. 1 cm^2 of horse muscle and 0.5 ml of the preparation of active compound. After 24 hours, the degree of destruction is determined.

The subject of data set [6] is Psoroptes ovis. The experiment in a line: Test with Psoroptes ovis. It is filed as in vivo. The note with it: 10 ppm active compound, 24 hours, read-out: destruction. The protocol: 35 parts by weight of ethylene glycol monomethyl ether
35 parts by weight of nonylphenol polyglycol ether
To produce a suitable preparation of active compound, three parts by weight of active compound are mixed with seven parts by weight of the abovementioned solvent mixture and the concentrate thus obtained is diluted with water to the desired concentration.
About 10-25 Psoroptes ovis are introduced into 1 ml of the active compound preparation to be tested, this having been pipetted into tablet nests of a deep-drawn package. After 24 hours, the degree of destruction is determined.

SMILES strings stand for the structures.

As to `CCCOP(=S)(OCC)Oc1cnc(C(C)C)nc1` (stereo not shown) [known compound (B), reference compound], the degree of effectiveness turned out to be 100% in data set [1] and 95% in data set [2].
One may read the LD50 as the dose at which mortality reaches 50%. A higher LD50 goes with lower toxicity. Turning to `CCOP(=S)(OCC(F)(F)F)Oc1cnc(C(C)(C)C)nc1` (stereo not shown) [Example 1, O-ethyl O-(2,2,2-trifluoroethyl) O-(2-tert.-butyl-pyrimidin-5-yl)thionophosphate], the 50% lethal dose (LD50) in data set [3] lay in the range of 100 to 250 mg/kg. The degree of effectiveness in data set [1] and in data set [2] was 95% throughout. The mortality at 2.5 ppm in data set [4] was 100%.
In data set [3], `CCOP(=S)(OCC(F)(F)C(F)F)Oc1cnc(C(C)(C)C)nc1` (stereo not shown) [Example 2] displayed an LD50 of 50 mg/kg. In addition, the degree of effectiveness in data set [1] and in data set [2] was 100% each time. In addition, in data set [4], the mortality at 2.5 ppm was 100%. Moreover, the mortality at 10 ppm in data set [5] and in data set [6] was 100% in each case.
As to `CCOP(=S)(OCC)Oc1cnc(C(C)(C)C)nc1` [Comparison compound (A), reference compound], in data set [3], the LD50 lay in the range of 1 to 2.5 mg/kg. Moreover, the degree of effectiveness in data set [1] and in data set [2] was 100% throughout. Further, in data set [4], the mortality at 2.5 ppm was found to be 100%.
